Measured values: patent US10077241B2 (Janssen Pharmaceutica NV, priority 2014, dated 2018)
Counter-ions that a name gives are not always drawn.

Experiments:
[1] = target: T1, TGR5 (NCI-H716 cell line) (Homo sapiens, UniProt Q8TDU6); assay: NCI-H716 cAMP Agonist EC50 Determination
T1 sequence (Q8TDU6 1-330): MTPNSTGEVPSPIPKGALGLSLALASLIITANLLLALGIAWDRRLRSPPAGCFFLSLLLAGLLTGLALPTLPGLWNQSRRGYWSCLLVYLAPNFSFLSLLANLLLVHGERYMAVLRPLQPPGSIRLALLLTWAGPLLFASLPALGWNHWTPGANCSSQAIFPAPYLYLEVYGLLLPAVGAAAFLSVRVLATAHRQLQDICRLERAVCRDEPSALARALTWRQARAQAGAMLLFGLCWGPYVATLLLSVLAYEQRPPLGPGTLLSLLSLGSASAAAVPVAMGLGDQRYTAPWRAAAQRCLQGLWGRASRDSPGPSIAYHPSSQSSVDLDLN

TGR5 (STC1 cell line) = target: T2, TGR5 (STC1 cell line) (Mus musculus, UniProt Q80SS6); assay: STC1 cAMP Agonist EC50 Determination
T2 sequence (Q80SS6 1-329): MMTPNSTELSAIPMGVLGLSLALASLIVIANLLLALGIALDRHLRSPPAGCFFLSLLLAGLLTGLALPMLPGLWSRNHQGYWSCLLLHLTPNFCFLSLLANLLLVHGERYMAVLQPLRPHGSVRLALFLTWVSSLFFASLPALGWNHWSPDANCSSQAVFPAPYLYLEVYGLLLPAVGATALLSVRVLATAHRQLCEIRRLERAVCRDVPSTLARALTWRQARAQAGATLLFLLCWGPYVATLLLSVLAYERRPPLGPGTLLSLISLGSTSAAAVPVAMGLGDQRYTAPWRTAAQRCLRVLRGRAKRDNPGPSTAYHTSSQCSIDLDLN

Row | SMILES | EC50 [1] | EC50 (TGR5 (STC1 cell line))
1 | COc1cc(C2CCCc3nc(SCc4c(F)cncc4Cl)n(-c4ccc(F)cc4)c32)ccc1Cl (stereo not drawn) [Example 55, 7-(4-chloro-3-methoxyphenyl)-2-[[(3-chloro-5-fluoropyridin-4-yl)methyl]sulfanyl]-1-(4-fluorophenyl)-4,5,6,7-tetrahydro-1H-1,3-benzodiazole bis(trifluoroacetic acid)] | > 50 µM | 0.18 µM
2 | COc1cc(C2(C)CCCc3nc(SCc4c(F)cncc4F)n(-c4ccc(F)cc4)c32)ccc1Cl (stereo not drawn) [Example 98, 2-((3,5-difluoropyridin-4-yl)methylthio)-7-(4-chloro-3-methoxyphenyl)-1-(4-fluorophenyl)-4,5,6,7-tetrahydro-7-methyl-1H-benzo[d]imidazole trifluoroacetic acid] | 24.3 µM | 0.16 µM
3 | COc1cc(C2CCCc3nc(SCc4c(F)cccc4C(F)(F)F)n(-c4ccc(F)cc4)c32)ccc1Cl (stereo not drawn) [Example 15, 7-(4-chloro-3-methoxyphenyl)-2-([[2-fluoro-6-(trifluoromethyl)phenyl]methyl]sulfanyl)-1-(4-fluorophenyl)-4,5,6,7-tetrahydro-1H-1,3-benzodiazole] | > 50 µM | 13.3 µM
4 | COc1cc(C2CCCc3nc(SCc4c(F)cc(C#N)cc4F)n(-c4ccc(F)cc4)c32)ccc1Cl (stereo not drawn) [Example 36, 4-([[7-(4-chloro-3-methoxyphenyl)-1-(4-fluorophenyl)-4,5,6,7-tetrahydro-1H-1,3-benzodiazol-2-yl]sulfanyl]methyl)-3,5-difluorobenzonitrile] | > 50 µM | 1.34 µM
5 | COc1ccc(C2(C)CCCc3nc(SCc4c(Cl)cccc4Cl)n(-c4ccc(F)cc4)c32)cc1OC (stereo not drawn) [Example 114, 2-((2,6-dichlorobenzyl)thio)-7-(3,4-dimethoxyphenyl)-1-(4-fluorophenyl)-7-methyl-4,5,6,7-tetrahydro-1H-benzo[d]imidazole] | 25.7 µM | 1.64 µM
6 | COc1cc(C2CCCc3nc(SCc4c(F)cc(CCC#N)cc4F)n(-c4ccc(F)cc4)c32)ccc1Cl (stereo not drawn) [Example 46, 3-(4-((7-(4-chloro-3-methoxyphenyl)-1-(4-fluorophenyl)-4,5,6,7-tetrahydro-1H-benzo[d]imidazol-2-ylthio)methyl)-3,5-difluorophenyl)propanenitrile trifluoroacetic acid] | > 50 µM | 0.14 µM
7 | COc1ccc(C2CCCc3nc(SCc4c(F)cc(C(=O)O)cc4F)n(-c4ccc(F)cc4)c32)cc1OC (stereo not drawn) [Example 65, 4-(((7-(3,4-dimethoxyphenyl)-1-(4-fluorophenyl)-4,5,6,7-tetrahydro-1H-benzo[d]imidazol-2-yl)thi)methyl)-3,5-difluorobenzoic acid] | > 50 µM | 3.75 µM
8 | COc1cc(C2CCCc3nc(SCc4c(F)cc(CCCO)cc4F)n(-c4ccc(F)cc4)c32)ccc1Cl (stereo not drawn) [Example 41, 3-(4-((7-(4-chloro-3-methoxyphenyl)-1-(4-fluorophenyl)-4,5,6,7-tetrahydro-1H-benzo[d]imidazol-2-ylthio)methyl)-3,5-difluorophenyl)propan-1-ol trifluoroacetic acid] | > 50 µM | 0.89 µM
9 | COc1ccc(C2CCCc3nc(SCc4c(F)cc(OCCCl)cc4F)n(-c4ccc(F)cc4)c32)cc1OC (stereo not drawn) [Example 67, 2-((4-(2-chloroethoxy)-2,6-difluorobenzyl)thio)-7-(3,4-dimethoxyphenyl)-1-(4-fluorophenyl)-4,5,6,7-tetrahydro-1H-benzo[d]imidazole] | 8.34 µM | 0.5 µM
10 | COc1cccc(C2CCCc3nc(SCc4c(F)cncc4F)n(-c4ccc(F)cc4)c32)c1 (stereo not drawn) [Example 71, 2-(((3,5-difluoropyridin-4-yl)methyl)thio)-1-(4-fluorophenyl)-7-(3-methoxyphenyl)-4,5,6,7-tetrahydro-1H-benzo[d]imidazole] | > 50 µM | 1.91 µM

Results, then the compound that gave them:

Row | EC50 [1] | EC50 (TGR5 (STC1 cell line)) | SMILES
11 | > 50 µM | 14.1 µM | COc1cc(C2(C=O)CCCc3nc(SCc4c(F)cccc4Cl)n(-c4ccc(F)cc4)c32)ccc1Cl (stereo not drawn) [Example 130, 4-(4-chloro-3-methoxyphenyl)-2-(2-chloro-6-fluorobenzylthio)-3-(4-fluorophenyl)-4,5,6,7-tetrahydro-3H-benzo[d]imidazole-4-carbaldehyde trifluoroacetic acid]
12 | > 50 µM | 14.9 µM | COc1cc(C2CCCc3nc(SCc4c(F)cc(/C=C5\SC(=O)NC5=O)cc4F)n(-c4ccc(F)cc4)c32)ccc1Cl (stereo not drawn) [Example 37, (5Z)-5-[[4-([[7-(4-chloro-3-methoxyphenyl)-1-(4-fluorophenyl)-4,5,6,7-tetrahydro-1H-1,3-benzodiazol-2-yl]sulfanyl]methyl)-3,5-difluorophenyl]methylidene]-1,3-thiazolidine-2,4-dione]
13 | > 50 µM | 3.9 µM | COc1cc(C2CCCc3nc(SCc4c(F)cc(OCCOCCN(C)C)cc4F)n(-c4ccc(F)cc4)c32)ccc1Cl (stereo not drawn) [Example 34, (2-[2-[4-([[7-(4-chloro-3-methoxyphenyl)-1-(4-fluorophenyl)-4,5,6,7-tetrahydro-1H-1,3-benzodiazol-2-yl]sulfanyl]methyl)-3,5-difluorophenoxy]ethoxy]ethyl)dimethylamine hydrochloride]
14 | > 50 µM | 0.25 µM | COc1cc(C2(C)CCCc3nc(SCc4c(F)cc(C(=O)N5CCOCC5)cc4F)n(-c4ccc(F)cc4)c32)ccc1Cl (stereo not drawn) [Example 93, 7-(4-chloro-3-methoxyphenyl)-2-[([2,6-difluoro-4-[(morpholin-4-yl)carbonyl]phenyl]methyl)sulfanyl]-1-(4-fluorophenyl)-7-methyl-4,5,6,7-tetrahydro-1H-1,3-benzodiazole]
15 | 22 µM | 7.39 µM | COCCOCCOCCOCCNC(=O)c1cc(F)c(CSc2nc3c(n2-c2ccc(F)cc2)C(c2cc(OC)c(OC)cc2Br)CCC3)c(F)c1 (stereo not drawn) [Example 68a, 4-(((7-(2-bromo-4,5-dimethoxyphenyl)-1-(4-fluorophenyl)-4,5,6,7-tetrahydro-1H-benzo[d]imidazol-2-yl)thio)methyl)-3,5-difluoro-N-(2,5,8,11-tetraoxatridecan-13-yl)benzamide]
16 | > 50 µM | 47.8 µM | COc1cc(C2(C)CCCc3nc(SCc4ccccc4)n(-c4ccc(F)cc4)c32)ccc1Cl (stereo not drawn) [Example 87, 2-(benzylsulfanyl)-7-(4-chloro-3-methoxyphenyl)-1-(4-fluorophenyl)-7-methyl-4,5,6,7-tetrahydro-1H-1,3-benzodiazole]
17 | 2.4 µM | 0.9 µM | COCCOCCOCCOCCNC(=O)c1cc(F)c(CSc2nc3c(n2-c2ccc(F)cc2)C(c2ccc(OC)c(OC)c2)CCC3)c(F)c1 (stereo not drawn) [Example 66, 4-(((7-(3,4-dimethoxyphenyl)-1-(4-fluorophenyl)-4,5,6,7-tetrahydro-1H-benzo[d]imidazol-2-yl)thio)methyl)-3,5-difluoro-N-(2,5,8,11-tetraoxatridecan-13-yl)benzamide]
18 | > 50 µM | 6.07 µM | COc1cc(C2OCCc3nc(SCc4c(F)cc(OCCOCCOCCCl)cc4F)n(-c4ccc(F)cc4)c32)ccc1Cl (stereo not drawn) [Example 133, 4-(4-chloro-3-methoxyphenyl)-2-((4-(2-(2-(2-chloroethoxy)ethoxy)ethoxy)-2,6-difluorobenzyl)thio)-3-(4-fluorophenyl)-3,4,6,7-tetrahydropyrano[3,4-d]imidazole]
